Measurements from patent publication US8536187B2 (Gilead Sciences, Inc., priority 2008, dated 2013).

Key:
[1] = system: HCV replicon in human hepatoma Huh-7 cell line; assay: Anti-HCV replicon assay, EC50 (luciferase luminescence); assay type: cell-based; settings: Hepatitis C virus, Huh-7, 72 h
Protocol: (§1) The anti-HCV activity of the pyrido[3,2-d]pyrimidine derivatives of this invention was tested in a human hepatoma Huh-7 cell line harboring a HCV replicon. The assay comprised the following steps: • Step 1: compound preparation and serial dilution: serial dilution is performed in 50% DMSO in a 384-well plate. A solution containing a compound at 100-fold concentration of the starting final serial dilution concentration was prepared in 50% DMSO and added to the pre-specified wells in column 1 of a polypropylene 384-well plate. The plate was then placed on a Precision 2000 Workstation to start the serial dilution. After the serial dilution, a volume of 2 μL of the solution was transferred from the 384-well plate to a 96-well cell culture plate containing 100 μL of cell media on a Biomek FX Workstation. The DMSO concentration in the final assay condition was 0.5% after cells are added to the plate and the total volume in each well is brought to 200 μL. • Step 2: to each well of the serial dilution plate prepared above, 100 μL of cell media containing 6000 suspended Huh-7 HCV replicon cells was added with a Multidrop workstation. The plates were incubated for 3 days at 37° C. with 5% CO2. • Step 3: detection: • a) for the EC50 assay, the media in a 96-well cell culture plate was aspirated with a Biotek EL405 plate-washer. A volume of 200 μL of a solution containing a 1:1 mixture of cell-lysis buffer (Promega, Luciferase Cell Culture Lysis 5× Reagent, cat. #E1531) and luciferase substrate solution (Promega, Luciferase Assay, cat.# E4550) was added to each well of the plate with Multidrop. The plate was incubated for 30 minutes at room temperature before the luminescence signal was measured with a TopCount plate-reader. • b) for the CC50 assay, a volume of 100 μL of pre-mixed CellTiter-Glo (Promega, cat.# G7572) solution is added directly to the cell culture in each well of the plate and the luminescence signal is measured with a TopCount plate-reader after 10 minutes of incubation at room temperature.

[2] = CC50 assay (CellTiter-Glo) in Huh-7 HCV replicon cells; assay type: cell-based; settings: human, Table 2, 3 days incubation
Protocol: as §1

SMILES | EC50 [1] | CC50 at 3 days [2]
NS(=O)(=O)c1cc(Cl)cc(CNc2nc(NC3(C(F)(F)F)CC3)c3nc(-c4ccc(N5CNCC5=O)cc4)ccc3n2)c1 [Example 45, 3-chloro-5-((6-(4-(5-oxoimidazolidin-1-yl)phenyl)-4-(1-(trifluoromethyl)cyclopropylamino)pyrido [3,2-d]pyrimidin-2-ylamino)methyl)benzenesulfonamide] | < 100 nM | 1 to 10 µM
COCC#Cc1ccc2nc(NCc3cc(Cl)cc(S(N)(=O)=O)c3)nc(NC3(C(F)(F)F)CC3)c2n1 [Example 46, 3-chloro-5-((6-(3-methoxyprop-1-ynyl)-4-(1-(trifluoromethyl)cyclopropyl-amino)pyrido[3,2-d]pyrimidin-2-ylamino)methyl)benzene-sulfonamide] | < 100 nM | > 10 µM
C[C@@H](Nc1nc(NC2(C(F)(F)F)CC2)c2nc(-c3cccc(S(C)(=O)=O)c3)ccc2n1)c1ccc(-n2cncn2)cc1 [Example 47, N^2-((R)-1-(4-(1H-1,2,4-triazol-1-yl)phenyl)ethyl)-6-(3-(methylsulfonyl)phenyl)-N^4-(1-(trifluoromethyl)cyclopropyl) pyrido[3,2-d]pyrimidine-2,4-diamine] | < 100 nM | 1 to 10 µM
NS(=O)(=O)c1cc(Cl)cc(CNc2nc(NC3(C(F)(F)F)CC3)c3nc(-c4ccc(NC(=O)C5(C(F)(F)F)CC5)cc4)ccc3n2)c1 [Example 48, 3-chloro-5-((6-(4-(1-(trifluoromethyl)cyclopropyl-carboxamido)phenyl)-4-(1-(trifluoromethyl)cyclopropyl-amino)pyrido[3,2-d]pyrimidin-2-ylamino)methyl)benzene-sulfonamide] | < 100 nM | 1 to 10 µM
N#Cc1cc(CNc2nc(NC3(C(F)(F)F)CC3)c3nc(-c4ccc(F)cc4)ccc3n2)cc(S(N)(=O)=O)c1 [Example 49, 3-cyano-5-((6-(4-fluorophenyl)-4-(1-(trifluoromethyl)cyclopropyl-amino)pyrido[3,2-d]pyrimidin-2-ylamino)methyl)benzene-sulfonamide] | < 100 nM | > 10 µM
CN1CCN(c2ccc(-c3ccc4nc(NCc5cccc(S(C)(=O)=O)c5)nc(NC5(C(F)(F)F)CC5)c4n3)cc2)C1=O [Example 50, 1-(4-(2-(3-(methylsulfonyl)benzylamino)-4-(1-(trifluoromethyl)cyclopropylamino)pyrido[3,2-d]pyrimidin-6-yl)phenyl)-3-methylimidazolidin-2-one] | < 100 nM | 1 to 10 µM
NS(=O)(=O)c1ccc(CNc2nc(NC3(C(F)(F)F)CC3)c3nc(-c4cccc(N5CCCS5(=O)=O)c4)ccc3n2)cc1 [Example 51, 4-((6-(3-(1,1-dioxo-isothiazolidin-2-yl)phenyl)-4-(1-(trifluoromethyl)cyclopropyl-amino)pyrido[3,2-d]pyrimidin-2-ylamino)methyl)benzene-sulfonamide] | 250 to 2000 nM | 1 to 10 µM
CCOc1ccc(-c2ccc3nc(NCc4ccc(-n5cncn5)cc4)nc(NC4(C(F)(F)F)CC4)c3n2)cn1 [Example 52, N^2-(4-(1H-1,2,4-triazol-1-yl)benzyl)-6-(6-ethoxypyridin-3-yl)-N^4-(1-(trifluoromethyl)cyclopropyl)pyrido[3,2-d] pyrimidine-2,4-diamine] | < 100 nM | 1 to 10 µM
Cc1nccn1-c1cccc(CNc2nc(NC3(C(F)(F)F)CC3)c3nc(-c4ccc(F)cc4)ccc3n2)c1 [Example 53, N^2-(3-(2-methyl-1H-imidazol-1-yl)benzyl)-6-(4-fluorophenyl)-N^4-(1-(trifluoromethyl)cyclopropyl)pyrido[3,2-d] pyrimidine-2,4-diamine] | 250 to 2000 nM | 1 to 10 µM
NS(=O)(=O)c1ccc(CNc2nc(NC3(C(F)(F)F)CC3)c3nc(-c4ccc(OC(F)F)cc4)ccc3n2)cc1 [Example 61, 4-((6-(4-(difluoromethoxy)phenyl)-4-(1-(trifluoromethyl)cyclopropylamino)pyrido[3,2-d]pyrimidin-2-ylamino)methyl) benzenesulfonamide] | < 100 nM | 1 to 10 µM
Fc1cc(-c2ccc3nc(NCc4cccc(-n5cncn5)c4)nc(NC4(C(F)(F)F)CC4)c3n2)cnc1NC1CC1 [Example 62, N^2-(3-(1H-1,2,4-triazol-1-yl)benzyl)-6-(6-(cyclopropylamino)-5-fluoropyridin-3-yl)-N^4-(1-(trifluoromethyl)cyclopropyl) pyrido[3,2-d]pyrimidine-2,4-diamine] | < 100 nM | > 10 µM
NS(=O)(=O)c1cc(F)cc(CNc2nc(NC3(C(F)(F)F)CC3)c3nc(C#CC4CC4)ccc3n2)c1 [Example 63, 3-((6-(2-cyclopropylethynyl)-4-(1-(trifluoromethyl)cyclopropylamino)pyrido[3,2-d]pyrimidin-2-ylamino)methyl)-5-fluorobenzenesulfonamide] | < 100 nM | > 10 µM
Fc1cc(-c2ccc3nc(NCc4ccc(-n5cncn5)cc4)nc(NC4(C(F)(F)F)CC4)c3n2)cnc1NC1CC1 [Example 65, N^2-(4-(1H-1,2,4-triazol-1-yl)benzyl)-6-(6-(cyclopropylamino)-5-fluoropyridin-3-yl)-N^4-(1-(trifluoromethyl)cyclopropyl) pyrido[3,2-d]pyrimidine-2,4-diamine] | < 100 nM | 1 to 10 µM
NS(=O)(=O)c1cccc(CNc2nc(NC3(C(F)(F)F)CCCCC3)c3nc(-c4ccc(F)cc4)ccc3n2)c1 [Example 66, 3-((6-(4-fluorophenyl)-4-(1-(trifluoromethyl)cyclohexylamino)pyrido[3,2-d]pyrimidin-2-ylamino)methyl)benzene-sulfonamide] | 100 to 250 nM | > 10 µM
C[C@@H](Nc1nc(NC2(C(F)(F)F)CCCCC2)c2nc(-c3ccc(F)cc3)ccc2n1)c1ccc(S(N)(=O)=O)cc1 [Example 67, (R)-4-(1-(6-(4-fluorophenyl)-4-(1-(trifluoromethyl)cyclohexylamino)pyrido[3,2-d]pyrimidin-2-ylamino)ethyl)benzenesulfonamide] | 250 to 2000 nM | > 10 µM
CCc1cc(S(N)(=O)=O)ccc1CNc1nc(NC2(C(F)(F)F)CC2)c2nc(-c3ccc(F)cc3)ccc2n1 [Example 68, 3-ethyl-4-((6-(4-fluorophenyl)-4-(1-(trifluoromethyl)cyclo-propylamino)pyrido[3,2-d]pyrimidin-2-ylamino)methyl) benzenesulfonamide] | 250 to 2000 nM | 1 to 10 µM
C[C@@H](Nc1nc(NC2(C(F)(F)F)CC2)c2nc(C#CC3CC3)ccc2n1)c1ccc(S(N)(=O)=O)cc1 [Example 69, (R)-4-(1-(6-(2-cyclopropylethynyl)-4-(1-(trifluoromethyl)cyclopropyl-amino)pyrido[3,2-d]pyrimidin-2-ylamino)ethyl)benzene-sulfonamide] | < 100 nM | > 10 µM
FC(F)(F)C1(Nc2nc(NCc3cccc(-n4cncn4)c3)nc3ccc(-c4ccc(NC5CC5)nc4)nc23)CC1 [Example 70, N^2-(3-(1H-1,2,4-triazol-1-yl)benzyl)-6-(6-(cyclopropylamino)pyridin-3-yl)-N^4-(1-(trifluoromethyl)cyclopropyl) pyrido[3,2-d]pyrimidine-2,4-diamine] | < 100 nM | > 10 µM
C[C@@H](Nc1nc(NC2(C(F)(F)F)CCCC2)c2nc(-c3ccc(F)cc3)ccc2n1)c1ccc(S(N)(=O)=O)cc1 [Example 71, (R)-4-(1-(6-(4-fluorophenyl)-4-(1-(trifluoromethyl)cyclo-pentylamino)pyrido[3,2-d]pyrimidin-2-ylamino)ethyl) benzenesulfonamide] | 250 to 2000 nM | > 10 µM
C[C@@H](Nc1nc(NC2(C(F)(F)F)CCC2)c2nc(-c3ccc(F)cc3)ccc2n1)c1ccc(S(N)(=O)=O)cc1 [Example 72, (R)-4-(1-(6-(4-fluorophenyl)-4-(1-(trifluoromethyl)cyclo-butylamino)pyrido[3,2-d]pyrimidin-2-ylamino)ethyl) benzenesulfonamide] | 250 to 2000 nM | > 10 µM
Nc1ccc(-c2ccc3nc(NCc4cccc(-n5cncn5)c4)nc(NC4(C(F)(F)F)CC4)c3n2)cn1 [Example 73, N^2-(3-(1H-1,2,4-triazol-1-yl)benzyl)-6-(6-aminopyridin-3-yl)-N^4-(1-(trifluoromethyl)cyclopropyl)pyrido[3,2-d] pyrimidine-2,4-diamine] | < 100 nM | 1 to 10 µM
COc1ccc(-c2ccc3nc(NCc4ccc(S(N)(=O)=O)cc4)nc(NC4(C(F)(F)F)CC4)c3n2)cc1C(F)(F)F [Example 75, 4-((6-(4-methoxy-3-(trifluoromethyl)phenyl)-4-(1-(trifluoromethyl)cyclopropyl-amino)pyrido[3,2-d]pyrimidin-2-ylamino)methyl)benzene-sulfonamide] | 250 to 2000 nM | > 10 µM
